Measurements taken from patent US7235584B2, “Non-psychotropic cannabinoids” (Pharmos Corporation, priority 2000, dated 2007).

How the values were obtained:
cannabimimetic activity = conditions: doses several thousand times higher than the ED50 of HU-210; cited from earlier work
tail flick model in mice = test: Tail flick model: analgesic effect and tolerance to morphine; type: in vivo, ICR male mice; conditions: for analgesic activity administered separately: escalating doses of up to 10 mg/kg i.p.
Source text: A mice model of acute pain, the tail flick model, was used to test the ability of compounds to prolong the analgesic activity of opioids, by preventing the development of tolerance, and their ability to reverse established tolerance.
The following animal model of acute pain was used to assess the potential analgesic effects of test compounds either alone or in combination with morphine. […] In this model the nociceptive stimulus is thermal and the latency time till the animal flicks its tail is monitored (Le Bars D., Gozariu M. & Cadden S. W., Pharmacol. Rev. 53: 597–652, 2001).
Hyperalgesia to radiant heat was assessed as follows. ICR male mice (20–30 g average body weight, Harlan, Israel) were injected with test compounds i.p. at the volume dose of 5 ml/kg. Each treatment group contained at least 6 animals. The test compounds were dissolved in Cremophor®:ethanol (70:30 weight/weight) and diluted 1:20 in saline prior to injection. Morphine HCl was directly dissolved in saline. Its vehicle was also included as control. Pain threshold was determined 30 minutes post-administration by measuring the foot-withdrawal latency defined as the time from the onset of radiant heat to foot withdrawal. The cut-off time was preset to 10 seconds in order to prevent tissue damage. […] Test compounds (5 mg/kg) and vehicle (5 ml/kg) were administered 15 minutes before morphine and pain threshold was determined 30 minutes after the first injection of morphine on day 1, 5, 8 and 10. […] Pain threshold was determined on day 1 and 10.
In each type of study, the animals were tested on given days 30 minutes after morphine injection in the tail flick apparatus (Socrel, model DS 20). Animals were gently held while their tails were located above the photoelectric cell. The tails were then illuminated (21V) at 2 cm from the distal tip and the latency time, measured in seconds, was recorded in duplicates. The results are expressed either as absolute latency time or as percent of animals that enjoyed significant analgesia as measured by the fact that their latency time is at least twice the latency time for vehicle treated animals. At the end of the study, the animals were euthanized by i.p. injection of 100 mg/kg sodium pentobarbitone.
The differences between the latency times among various treatment groups was analyzed by analysis of variance (ANOVA) followed by post-hoc Duncan test. The differences between the % of animals showing analgesia among various treatment groups was analyzed by analysis of variance (ANOVA) followed by post-hoc Fisher exact test. A value of p<0.05 is considered to be statistically significant.

transient MCAo in rats = test: Transient middle cerebral artery occlusion (MCAo), infarct size evaluation; type: in vivo
Source text: The middle cerebral artery is the cerebral blood vessel most susceptible to stroke in humans. In animals, coagulation, permanent ligation or permanent placement of an occluding thread ink the artery produces a permanent focal stroke affecting the MCA territory. Transient ligation or occlusion results in transient focal stroke. Both transient and permanent focal strokes result in varying degrees of edema and infarction in the affected brain regions. The ability of compounds to reduce the volumes of edema and infarction is considered a measure of their potential as anti-stroke treatment.
• a. Male rats (8/treatment group) 320–380 gr. (Harlan Israel). • b. Halothane (Rhone Poulenc France) • c. Pentobarbitone (Pental Veterinary, CTS Israel). • d. Poly-L-Lysine (Sigma, USA). • e. Silk suture material 3-0 and 4-0. • f. Nylon (Polyamid) suture material 3-0. Four cm pieces were cut and positioned in a solution of 1% Poly-L-Lysine for 1 minute and dried in an oven (60 ° C.) for 60 minutes. The tip of each piece was rounded under a flame. • g. Saline (Teva Medical). • h. Blank cremophor ethanol cosolvent (Pharmos). • i. Dexanabinol in cremophor ethanol cosolvent 50 mg/ml. (Both Dexanabinol and its vehicle were diluted in saline prior to drug administration. • j. Analogs PRS-211,092, PRS-211,095, PRS-211,128 PRS-211,132 and PRS-211,220 in cremophor ethanol cosolvent, 50 mg/ml. • k. The analogs were diluted in saline prior to drug administration. Methods Transient MCAo
a. Surgical details of the MCAO method used for testing dexanabinol analogs, are presented in Belayev, et al., (Belayev, Busto, Weizhao, and Ginsberg, Stroke 26:2313–2319, 1995) which is incorporated herein in its entirety by reference.
b. Two hours after the start of MCAo, the animals were reanesthetized with halothane, the neck wound was re-opened and the nylon thread pulled out of the Internal carotid artery (ICA). The skin wound was then closed with 3-0 silk suture material and the animals allowed to recover from the anesthesia.
c. Three sets of animals were tested. In the first test immediately (2+0 hours) before thread removal the animals were injected IV with either analogs PRS 211,095, PRS 211,128, PRS 211,132, or Dexanabinol (PRS 211,007) each at a dosage of 5 mg/kg. One group of animals was treated with 5mi/kg vehicle alone. In another group, the animals subjected to “sham” operation, the suture was passed into the ICA, as described above, but immediately withdrawn. […] Laser Doppler Flow (LDF) determined the success of MCAo—a drop of more then 50% in cerebral blood flow was considered as a sign of successful MCAO. […]
A detailed investigation of neurological performance was carried out on the first, third and the 7th day after the MCAo. […] Animals were scored according to their performance: […]

CCCCCCC(C)(C)c1cc(O)c2c(c1)OC(C)(C)[C@H]1CC=C(CO)CC21 (stereo partly drawn) [211,007-000, 1,1 dimethyl heptyl-(3S,4S)-7-hydroxy-Δ^6-tetrahydrocannabinol]
cannabimimetic activity (in words) (cannabimimetic activity): inactive as a cannabimimetic

CCCCCCC(C)(C)c1cc(O)c2c(c1)OC(C)(C)[C@H]1CC=C(Cn3cccn3)C[C@H]21 [211,220-000, (+)-(3S,4S)-6,6-Dimethyl-(1,1-dimethylheptyl)-1-hydroxy-9-(pyrazolomethyl)-6a,7,10,10a-tetrahydro-6H-dibenzo[b,d]pyran]
development of tolerance to morphine (tail flick model in mice; 5 mg/kg in combination with 10 mg/kg i.p. morphine over 10 days): effective in reducing the development of tolerance toward opioid
analgesic activity administered separately (tail flick model in mice): no significant analgesic activity
reversal of established tolerance to morphine (tail flick model in mice; in combination with morphine from day 11, tested day 12, 15, 17, PRS-211,220 5 mg/kg, dextromethorphan 20 mg/kg): trend of reversal at all time points tested which became statistically significant on day 17

CCCCCCC(C)(C)c1cc(O)c2c(c1)OC(C)(C)C1CC=C(Cn3ccnc3)CC21.Cl (single isomer, unassigned; (+)) [211,095-000, (+)-(3S ,4S )-6,6-Dimethyl-(1,1-dimethylheptyl)-1-hydroxy-9-(imidazolomethyl)-6a,7,10,10a-tetrahydro-6H-dibenzo[b,d]pyran]
Behavioral/neurological outcome (transient MCAo in rats; posture and flexion reflex, days 1, 3, 7 after MCAo): fewer neurological deficits and recovered faster
Mortality rate (transient MCAo in rats; transient MCAo, 5 mg/kg IV at 2+0 hours): No mortality
reduction of infarct size (transient MCAo in rats; transient MCAo, one week after the ischemic insult): 60%
analgesic activity administered separately (tail flick model in mice): no significant analgesic activity

CCCCCCC(C)(C)c1cc(O)c2c(c1)OC(C)(C)C1CC=C(CSc3ncc[nH]3)CC21 (single isomer, unassigned; (+)) [211,092-000]
analgesic activity administered separately (tail flick model in mice): no significant analgesic activity
